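Where inhibition never reached the appropriate level, the endpoint shown equals the highest concentration tested. Otherwise, values were interpolated linearly from a five-concentration, 48-hour dose response in 96-well plates. Here, GI50 denotes the concentration required for 50% inhibition of growth. TGI is the concentration that stops growth completely.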
What was measured:
Assay in all cases: DTP human tumour cell line panel, 48 h
786-0 renal = tested on: 786-0 renal
A498 renal = tested on: A498 renal
A549 NSCLC = tested on: A549 NSCLC
ACHN renal = tested on: ACHN renal
BT-549 breast = tested on: BT-549 breast
CAKI-1 renal = tested on: CAKI-1 renal
CCRF-CEM leukemia = tested on: CCRF-CEM leukemia
COLO 205 colon = tested on: COLO 205 colon
DU-145 prostate = tested on: DU-145 prostate
EKVX NSCLC = tested on: EKVX NSCLC
HCC-2998 colon = tested on: HCC-2998 colon
HCT-116 colon = tested on: HCT-116 colon
HCT-15 colon = tested on: HCT-15 colon
HOP-62 NSCLC = tested on: HOP-62 NSCLC
HOP-92 NSCLC = tested on: HOP-92 NSCLC
HS 578T breast = tested on: HS 578T breast
HT29 colon = tested on: HT29 colon
IGROV1 ovarian = tested on: IGROV1 ovarian
K-562 leukemia = tested on: K-562 leukemia
KM12 colon = tested on: KM12 colon
LOX IMVI melanoma = tested on: LOX IMVI melanoma
M14 melanoma = tested on: M14 melanoma
MALME-3M melanoma = tested on: MALME-3M melanoma
MCF7 breast = tested on: MCF7 breast
MDA-MB-231 breast = tested on: MDA-MB-231 breast
MDA-MB-435 = tested on: MDA-MB-435
MOLT-4 leukemia = tested on: MOLT-4 leukemia
NCI-H226 lung = tested on: NCI-H226 lung
NCI-H23 lung = tested on: NCI-H23 lung
NCI-H460 lung = tested on: NCI-H460 lung
NCI-H522 lung = tested on: NCI-H522 lung
NCI/ADR-RES ovarian = tested on: NCI/ADR-RES ovarian
OVCAR-3 ovarian = tested on: OVCAR-3 ovarian
OVCAR-4 ovarian = tested on: OVCAR-4 ovarian
OVCAR-5 ovarian = tested on: OVCAR-5 ovarian
OVCAR-8 ovarian = tested on: OVCAR-8 ovarian
PC-3 prostate = tested on: PC-3 prostate
RPMI-8226 leukemia = tested on: RPMI-8226 leukemia
RXF 393 renal = tested on: RXF 393 renal
SF-268 CNS = tested on: SF-268 CNS
SF-295 CNS = tested on: SF-295 CNS
SF-539 CNS = tested on: SF-539 CNS
SK-MEL-2 melanoma = tested on: SK-MEL-2 melanoma
SK-MEL-28 melanoma = tested on: SK-MEL-28 melanoma
SK-MEL-5 melanoma = tested on: SK-MEL-5 melanoma
SK-OV-3 ovarian = tested on: SK-OV-3 ovarian
SN12C renal = tested on: SN12C renal
SNB-19 CNS = tested on: SNB-19 CNS
SNB-75 CNS = tested on: SNB-75 CNS
SR leukemia = tested on: SR leukemia
SW-620 colon = tested on: SW-620 colon
T-47D breast = tested on: T-47D breast
TK-10 renal = tested on: TK-10 renal
U251 CNS = tested on: U251 CNS
UACC-257 melanoma = tested on: UACC-257 melanoma
UACC-62 melanoma = tested on: UACC-62 melanoma
UO-31 renal = tested on: UO-31 renal

`COc1ccc(-c2cc(-c3ccc(C)cc3)nc3nc(=S)[nH]c(N)c23)cc1` was tested, and the GI50 (786-0 renal) was 22.4 µM, the TGI (786-0 renal) was 52.6 µM and the GI50 (A498 renal) was 19.2 µM. For the same compound, the TGI (A498 renal) was 39.4 µM, the GI50 (A549 NSCLC) was 24.3 µM and the TGI (A549 NSCLC) was > 100 µM. It also gave a GI50 (ACHN renal) of 18.8 µM, a TGI (ACHN renal) of 62.5 µM and a GI50 (BT-549 breast) of 27.1 µM. The TGI (BT-549 breast) was 60.4 µM, the GI50 (CAKI-1 renal) was 23.2 µM and the TGI (CAKI-1 renal) was 54.2 µM. For the same compound, the GI50 (CCRF-CEM leukemia) was 18.8 µM, the TGI (CCRF-CEM leukemia) was 64.8 µM and the GI50 (COLO 205 colon) was 26.8 µM. For the same compound, the TGI (COLO 205 colon) was 91.6 µM, the GI50 (DU-145 prostate) was 26.3 µM and the TGI (DU-145 prostate) was 75.5 µM. It also gave a GI50 (EKVX NSCLC) of 25.8 µM, a TGI (EKVX NSCLC) of 96 µM and a GI50 (HCC-2998 colon) of 23.6 µM. It also gave a TGI (HCC-2998 colon) of 42.9 µM, a GI50 (HCT-116 colon) of 11.3 µM and a TGI (HCT-116 colon) of 26.6 µM. For the same compound, the GI50 (HCT-15 colon) was 23.9 µM, the TGI (HCT-15 colon) was 64.4 µM and the GI50 (HOP-62 NSCLC) was 18.8 µM. The TGI (HOP-62 NSCLC) was 40.6 µM, the GI50 (HOP-92 NSCLC) was 15.5 µM and the TGI (HOP-92 NSCLC) was 75.5 µM. The GI50 (HS 578T breast) was 17.9 µM, the TGI (HS 578T breast) was 46.9 µM and the GI50 (HT29 colon) was 19.1 µM. For the same compound, the TGI (HT29 colon) was > 100 µM, the GI50 (IGROV1 ovarian) was 28.2 µM and the TGI (IGROV1 ovarian) was 78.4 µM. The GI50 (K-562 leukemia) was 15.1 µM, the TGI (K-562 leukemia) was 36.5 µM and the GI50 (KM12 colon) was 16.2 µM. The TGI (KM12 colon) was 36 µM, the GI50 (LOX IMVI melanoma) was 17.7 µM and the TGI (LOX IMVI melanoma) was 34.5 µM. For the same compound, the GI50 (M14 melanoma) was 19.1 µM, the TGI (M14 melanoma) was 37.4 µM and the GI50 (MALME-3M melanoma) was 26.7 µM. The TGI (MALME-3M melanoma) was 43.3 µM, the GI50 (MCF7 breast) was 15.8 µM and the TGI (MCF7 breast) was 69.4 µM. It also gave a GI50 (MDA-MB-231 breast) of 19.5 µM, a TGI (MDA-MB-231 breast) of 48.3 µM and a GI50 (MDA-MB-435) of 17.6 µM. The TGI (MDA-MB-435) was 36.9 µM, the GI50 (MOLT-4 leukemia) was 35.6 µM and the TGI (MOLT-4 leukemia) was 72.3 µM. It also gave a GI50 (NCI-H226 lung) of 17.5 µM, a TGI (NCI-H226 lung) of 41.7 µM and a GI50 (NCI-H23 lung) of 21.9 µM. It also gave a TGI (NCI-H23 lung) of 60.2 µM, a GI50 (NCI-H460 lung) of 12 µM and a TGI (NCI-H460 lung) of 27.5 µM. For the same compound, the GI50 (NCI-H522 lung) was 19.3 µM, the TGI (NCI-H522 lung) was 39 µM and the GI50 (NCI/ADR-RES ovarian) was 32.2 µM. The TGI (NCI/ADR-RES ovarian) was > 100 µM, the GI50 (OVCAR-3 ovarian) was 13.6 µM and the TGI (OVCAR-3 ovarian) was 30.4 µM. For the same compound, the GI50 (OVCAR-4 ovarian) was 74.3 µM, the TGI (OVCAR-4 ovarian) was > 100 µM and the GI50 (OVCAR-5 ovarian) was 39.3 µM. It also gave a TGI (OVCAR-5 ovarian) of 96.9 µM, a GI50 (OVCAR-8 ovarian) of 21.5 µM and a TGI (OVCAR-8 ovarian) of 86.4 µM. For the same compound, the GI50 (PC-3 prostate) was 37.7 µM, the TGI (PC-3 prostate) was > 100 µM and the GI50 (RPMI-8226 leukemia) was 18.4 µM. It also gave a TGI (RPMI-8226 leukemia) of 44.4 µM, a GI50 (RXF 393 renal) of 20.5 µM and a TGI (RXF 393 renal) of 44.5 µM. For the same compound, the GI50 (SF-268 CNS) was 17.5 µM, the TGI (SF-268 CNS) was 35.5 µM and the GI50 (SF-295 CNS) was 15.9 µM. It also gave a TGI (SF-295 CNS) of 34.9 µM, a GI50 (SF-539 CNS) of 19.2 µM and a TGI (SF-539 CNS) of 38.9 µM. For the same compound, the GI50 (SK-MEL-2 melanoma) was 19 µM, the TGI (SK-MEL-2 melanoma) was 41 µM and the GI50 (SK-MEL-28 melanoma) was 40.6 µM. The TGI (SK-MEL-28 melanoma) was > 100 µM, the GI50 (SK-MEL-5 melanoma) was 14.1 µM and the TGI (SK-MEL-5 melanoma) was 29.6 µM. The GI50 (SK-OV-3 ovarian) was 40.4 µM, the TGI (SK-OV-3 ovarian) was > 100 µM and the GI50 (SN12C renal) was 20.5 µM. For the same compound, the TGI (SN12C renal) was 48.6 µM, the GI50 (SNB-19 CNS) was 37.6 µM and the TGI (SNB-19 CNS) was > 100 µM. The GI50 (SNB-75 CNS) was 66.2 µM, the TGI (SNB-75 CNS) was > 100 µM and the GI50 (SR leukemia) was 24.6 µM. It also gave a TGI (SR leukemia) of 55.8 µM, a GI50 (SW-620 colon) of 17.9 µM and a TGI (SW-620 colon) of 33.9 µM. The GI50 (T-47D breast) was 14.8 µM, the TGI (T-47D breast) was 97.5 µM and the GI50 (TK-10 renal) was 22.8 µM. For the same compound, the TGI (TK-10 renal) was 57.5 µM, the GI50 (U251 CNS) was 15.2 µM and the TGI (U251 CNS) was 29.3 µM. For the same compound, the GI50 (UACC-257 melanoma) was 22.8 µM, the TGI (UACC-257 melanoma) was 45.3 µM and the GI50 (UACC-62 melanoma) was 20.6 µM. It also gave a TGI (UACC-62 melanoma) of 45.6 µM, a GI50 (UO-31 renal) of 19.2 µM and a TGI (UO-31 renal) of 48 µM.
